Reference: patent US12239627B2, “Method of treating conditions related to the PGI2 receptor” (Arena Pharmaceuticals, Inc., priority 2014, dated 2025)

Test: Phase 1 multiple ascending dose, dose titration study with healthy subjects (adverse events, tolerated dose)
Type: in vivo, human
Experimental: This study was a phase 1, randomized, double-blind, placebo-controlled, multiple-dose, dose titration study. A titration interval of 6 days was employed, with each dose being administered for at least 5 days. One goal was to determine the effect of dose titration on adverse effects.
In each of two subject cohorts, Cohort 1 and Cohort 2, subjects were treated at each dose level for duration of 5 days with exception of the last dose level which included 7 days of treatment.
The protocol was amended to provide for an additional cohort, Cohort 3, in order to evaluate a different dose escalation regimen, as disclosed below.
Cohorts 1 and 2: Two groups of 15 subjects were enrolled and randomized to receive placebo (5 subjects per Cohort) or a starting dose of 0.05 mg Compound 1 (10 subjects per Cohort) on Day I. Once daily (q.d.) dosing continued through 5 days. If tolerated, the next dose escalation (placebo or 0.1 mg q.d. Compound 1) occurred on Day 6 and this dose was administered daily through Day 10.
Subsequent dose escalations were to occur in the same manner every 6th day for up to 3 additional dose escalations if tolerated (placebo or 0.2, 0.3, and 0.4 mg Compound 1) with the final dose maintained for a duration of 7 days. The dose could be decreased (“de-escalated”) or increased (“re-escalated”) based on assessment of safety and tolerability.
Cohort 3: One group of 25 subjects (S placebo and 20 active) were enrolled and randomized to receive a starting dose of 0.01 mg Compound 1 twice daily or placebo on Day 1. Twice daily dosing continued through 5 days. If tolerated, the next dose escalation (placebo or Compound 1 0.02 mg twice daily) occurred on Day 6 and this dose was administered daily through Day 10. Subsequent dose escalations were to occur in the same manner every 6th day for up to 4 additional dose escalations if tolerated (placebo or 0.03, 0.04. 0.05, and 0.07 mg twice daily Compound 1). The dose could be decreased (“de-escalated”) or increased (“re-escalated”) based on assessment of safety and tolerability. The doses tested in this cohort were 0.01, 0.02, 0.03, 0.04, 0.05, and 0.07 mg administered twice daily for a total daily dose of 0.02, 0.04, 0.06, 0.08, 0.1, and 0.14 mg, respectively.
Compound 1 capsules were provided as 0.01 mg (all Cohorts) and 0.1 mg (Cohorts 1 and 2 only) strengths.

[1] = Cohort 3, twice daily, 0.07 mg (N = 4)
[2] = Cohort 3, twice daily, Total (all doses) (N = 20)
[3] = Cohorts 1 and 2, once daily, 0.03 mg (N = 4)
[4] = Cohorts 1 and 2, once daily, 0.05 mg (N = 20)
[5] = Cohorts 1 and 2, once daily, 0.1 mg (N = 16)
[6] = Cohorts 1 and 2, once daily, 0.2 mg (N = 5)
[7] = Cohorts 1 and 2, once daily, 0.3 mg (N = 1)
[8] = Cohorts 1 and 2, once daily, 0.4 mg (N = 1)
[9] = Cohorts 1 and 2, once daily, Total (all doses) (N = 20)
[10] = Cohorts 1 and 2, 0.05 mg once daily

For `O=C(O)COC[C@H]1CC[C@H](COC(=O)N(c2ccccc2)c2ccc(Cl)cc2)CC1` [Compound 1, 2-(((1r,4r)-4-(((4-chlorophenyl)(phenyl)carbamoyloxy)methyl)cyclohexyl)methoxy)acetic acid], the “Adverse Events (no. of subjects) leading to Decrease of Dose: Priapism” value [1] was 0 subjects, the “Adverse Events (no. of subjects) leading to Decrease of Dose: Vomiting” value [1] was 0 subjects and the “Adverse Events (no. of subjects) leading to Decrease of Dose: Abdominal pain” value [2] was 2 subjects. The “Adverse Events (no. of subjects) leading to Decrease of Dose: Arthralgia” value [2] was 2 subjects, the “Adverse Events (no. of subjects) leading to Decrease of Dose: Chest discomfort” value [2] was 1 subjects and the “Adverse Events (no. of subjects) leading to Decrease of Dose: Chest pain” value [2] was 1 subjects. For the same compound, the “Adverse Events (no. of subjects) leading to Decrease of Dose: Diarrhoea” value [2] was 2 subjects, the “Adverse Events (no. of subjects) leading to Decrease of Dose: Dizziness” value [2] was 3 subjects and the “Adverse Events (no. of subjects) leading to Decrease of Dose: Headache” value [2] was 10 subjects. For the same compound, the “Adverse Events (no. of subjects) leading to Decrease of Dose: Jaw pain” value [2] was 1 subjects, the “Adverse Events (no. of subjects) leading to Decrease of Dose: Myalgia” value [2] was 4 subjects and the “Adverse Events (no. of subjects) leading to Decrease of Dose: Nausea” value [2] was 5 subjects. For the same compound, the “Adverse Events (no. of subjects) leading to Decrease of Dose: Palpitations” value [2] was 1 subjects, the “Adverse Events (no. of subjects) leading to Decrease of Dose: Priapism” value [2] was 1 subjects and the “Adverse Events (no. of subjects) leading to Decrease of Dose: Vomiting” value [2] was 1 subjects. The “Tolerability of the starting dose” value (Cohort 3, 0.01 mg twice daily) was “all of the subjects were able to tolerate”, the “Tolerability of the first escalation” value (Cohort 3, 0.02 mg twice daily) was “all of the subjects were able to tolerate” and the “Subjects who completed the study at the dose” value (Cohort 3, 0.03 mg twice daily) was “Five”. The “Subjects able to escalate to the dose level through study completion” value (Cohort 3, 0.04 mg twice daily) was “Two”, the “Subjects able to escalate to the dose level through study completion” value (Cohort 3, 0.05 mg) was “Five” and the “Tolerability of the dose” value (Cohort 3, 0.07 mg twice daily) was “tolerated through study completion”. For the same compound, the “Subjects able to escalate to the dose” value (Cohort 3, 0.07 mg twice daily, highest dose level) was “Two”, the “Subjects who discontinued treatment due to an adverse event” value (Cohort 3, Day 20) was “One” and the “Subjects who received 0.03 mg as highest dose for at least 3 days” value (Cohorts 1 and 2) was 0.03 mg-17 subjects. For the same compound, the “Subjects who received 0.1 mg as highest dose for at least 3 days” value (Cohorts 1 and 2) was 0.1 mg-8 subjects, the “Subjects who received 0.2 mg as highest dose for at least 3 days” value (Cohorts 1 and 2) was 0.2 mg-1 subjects and the “Subjects who received 0.30 mg as highest dose for at least 3 days” value (Cohorts 1 and 2) was 0.30 mg-1 subject. For the same compound, the “Subjects with Final Compound 1 Total Daily Dose of 0.03 mg” value (Cohorts 1 and 2) was 0.03 mg-3 subjects, the “Subjects with Final Compound 1 Total Daily Dose of 0.05 mg” value (Cohorts 1 and 2) was 0.05 mg-9 subjects and the “Subjects with Final Compound 1 Total Daily Dose of 0.10 mg” value (Cohorts 1 and 2) was 0.10 mg-7 subjects. For the same compound, the “Subjects with Final Compound 1 Total Daily Dose of 0.30 mg” value (Cohorts 1 and 2) was 0.30 mg-1 subject, the “Adverse Events (no. of subjects) leading to Decrease of Dose: Chest pain” value [3] was 0 subjects and the “Adverse Events (no. of subjects) leading to Decrease of Dose: Diarrhoea” value [3] was 0 subjects. The “Adverse Events (no. of subjects) leading to Decrease of Dose: Erythema” value [3] was 0 subjects, the “Adverse Events (no. of subjects) leading to Decrease of Dose: Headache” value [3] was 0 subjects and the “Adverse Events (no. of subjects) leading to Decrease of Dose: Jaw pain” value [3] was 0 subjects. The “Adverse Events (no. of subjects) leading to Decrease of Dose: Nausea” value [3] was 0 subjects, the “Adverse Events (no. of subjects) leading to Decrease of Dose: Vomiting” value [3] was 0 subjects and the “Adverse Events (no. of subjects) leading to Decrease of Dose: Chest pain” value [4] was 0 subjects. The “Adverse Events (no. of subjects) leading to Decrease of Dose: Diarrhoea” value [4] was 1 subjects, the “Adverse Events (no. of subjects) leading to Decrease of Dose: Erythema” value [4] was 0 subjects and the “Adverse Events (no. of subjects) leading to Decrease of Dose: Headache” value [4] was 2 subjects. For the same compound, the “Adverse Events (no. of subjects) leading to Decrease of Dose: Jaw pain” value [4] was 0 subjects, the “Adverse Events (no. of subjects) leading to Decrease of Dose: Nausea” value [4] was 1 subjects and the “Adverse Events (no. of subjects) leading to Decrease of Dose: Vomiting” value [4] was 4 subjects. For the same compound, the “Adverse Events (no. of subjects) leading to Decrease of Dose: Chest pain” value [5] was 1 subjects, the “Adverse Events (no. of subjects) leading to Decrease of Dose: Diarrhoea” value [5] was 0 subjects and the “Adverse Events (no. of subjects) leading to Decrease of Dose: Erythema” value [5] was 0 subjects. For the same compound, the “Adverse Events (no. of subjects) leading to Decrease of Dose: Headache” value [5] was 5 subjects, the “Adverse Events (no. of subjects) leading to Decrease of Dose: Jaw pain” value [5] was 1 subjects and the “Adverse Events (no. of subjects) leading to Decrease of Dose: Nausea” value [5] was 1 subjects. For the same compound, the “Adverse Events (no. of subjects) leading to Decrease of Dose: Vomiting” value [5] was 2 subjects, the “Adverse Events (no. of subjects) leading to Decrease of Dose: Chest pain” value [6] was 0 subjects and the “Adverse Events (no. of subjects) leading to Decrease of Dose: Diarrhoea” value [6] was 0 subjects. For the same compound, the “Adverse Events (no. of subjects) leading to Decrease of Dose: Erythema” value [6] was 0 subjects, the “Adverse Events (no. of subjects) leading to Decrease of Dose: Headache” value [6] was 1 subjects and the “Adverse Events (no. of subjects) leading to Decrease of Dose: Jaw pain” value [6] was 0 subjects. For the same compound, the “Adverse Events (no. of subjects) leading to Decrease of Dose: Nausea” value [6] was 2 subjects, the “Adverse Events (no. of subjects) leading to Decrease of Dose: Vomiting” value [6] was 2 subjects and the “Adverse Events (no. of subjects) leading to Decrease of Dose: Chest pain” value [7] was 0 subjects. For the same compound, the “Adverse Events (no. of subjects) leading to Decrease of Dose: Diarrhoea” value [7] was 0 subjects, the “Adverse Events (no. of subjects) leading to Decrease of Dose: Erythema” value [7] was 0 subjects and the “Adverse Events (no. of subjects) leading to Decrease of Dose: Headache” value [7] was 0 subjects. The “Adverse Events (no. of subjects) leading to Decrease of Dose: Jaw pain” value [7] was 0 subjects, the “Adverse Events (no. of subjects) leading to Decrease of Dose: Nausea” value [7] was 0 subjects and the “Adverse Events (no. of subjects) leading to Decrease of Dose: Vomiting” value [7] was 0 subjects. For the same compound, the “Adverse Events (no. of subjects) leading to Decrease of Dose: Chest pain” value [8] was 0 subjects, the “Adverse Events (no. of subjects) leading to Decrease of Dose: Diarrhoea” value [8] was 0 subjects and the “Adverse Events (no. of subjects) leading to Decrease of Dose: Erythema” value [8] was 1 subjects. The “Adverse Events (no. of subjects) leading to Decrease of Dose: Headache” value [8] was 0 subjects, the “Adverse Events (no. of subjects) leading to Decrease of Dose: Jaw pain” value [8] was 0 subjects and the “Adverse Events (no. of subjects) leading to Decrease of Dose: Nausea” value [8] was 0 subjects. For the same compound, the “Adverse Events (no. of subjects) leading to Decrease of Dose: Vomiting” value [8] was 0 subjects, the “Adverse Events (no. of subjects) leading to Decrease of Dose: Chest pain” value [9] was 1 subjects and the “Adverse Events (no. of subjects) leading to Decrease of Dose: Diarrhoea” value [9] was 1 subjects. For the same compound, the “Adverse Events (no. of subjects) leading to Decrease of Dose: Erythema” value [9] was 1 subjects, the “Adverse Events (no. of subjects) leading to Decrease of Dose: Headache” value [9] was 8 subjects and the “Adverse Events (no. of subjects) leading to Decrease of Dose: Jaw pain” value [9] was 1 subjects. The “Adverse Events (no. of subjects) leading to Decrease of Dose: Nausea” value [9] was 4 subjects, the “Adverse Events (no. of subjects) leading to Decrease of Dose: Vomiting” value [9] was 8 subjects and the “Subjects unable to tolerate the starting dose (number)” value [10] was “three”. The “Subjects unable to tolerate the starting dose (percent)” value [10] was 15%, the “Subjects who tolerated the dose” value (Cohorts 1 and 2, 0.2 mg once daily) was “One” and the “Tolerability of the dose” value (Cohorts 1 and 2, 0.4 mg once daily, highest dose administered (one subject)) was “not tolerated”. The Subjects who withdrew (Cohorts 1 and 2, Day 1) was “One”, the “AEs considered moderate in intensity” value (within the Compound 1 group) was 95% and the “AEs deemed by the investigator to be probably related to study drug” value (within the Compound 1 group) was 90%.
